Experimental data reported in patent US12702715B2, “Targeted RNA degradation allows precision repurposing of protein-targeted small molecule medicines to RNA” (University of Florida Research Foundation, Incorporated, priority 2020, dated 2026).
Entries after “also recorded” stand apart in the source; their conditions may differ.

How the values were obtained:
FLT3 = FLT3 degradation Western blot in MDA-MB-231 cells; type: cell-based, human
Method: In each case, the secondary antibody was diluted two times more than the primary antibody.

[1] = biological target: T1, RNase L / pre-miR-21 ternary complex (Homo sapiens, UniProt Q05823); assay: RNase L immunoprecipitation; type: cell-based; conditions: 1 μM
T1 construct: endogenous in cells; host or cells: MDA-MB-231
T1 sequence (Q05823 1-741): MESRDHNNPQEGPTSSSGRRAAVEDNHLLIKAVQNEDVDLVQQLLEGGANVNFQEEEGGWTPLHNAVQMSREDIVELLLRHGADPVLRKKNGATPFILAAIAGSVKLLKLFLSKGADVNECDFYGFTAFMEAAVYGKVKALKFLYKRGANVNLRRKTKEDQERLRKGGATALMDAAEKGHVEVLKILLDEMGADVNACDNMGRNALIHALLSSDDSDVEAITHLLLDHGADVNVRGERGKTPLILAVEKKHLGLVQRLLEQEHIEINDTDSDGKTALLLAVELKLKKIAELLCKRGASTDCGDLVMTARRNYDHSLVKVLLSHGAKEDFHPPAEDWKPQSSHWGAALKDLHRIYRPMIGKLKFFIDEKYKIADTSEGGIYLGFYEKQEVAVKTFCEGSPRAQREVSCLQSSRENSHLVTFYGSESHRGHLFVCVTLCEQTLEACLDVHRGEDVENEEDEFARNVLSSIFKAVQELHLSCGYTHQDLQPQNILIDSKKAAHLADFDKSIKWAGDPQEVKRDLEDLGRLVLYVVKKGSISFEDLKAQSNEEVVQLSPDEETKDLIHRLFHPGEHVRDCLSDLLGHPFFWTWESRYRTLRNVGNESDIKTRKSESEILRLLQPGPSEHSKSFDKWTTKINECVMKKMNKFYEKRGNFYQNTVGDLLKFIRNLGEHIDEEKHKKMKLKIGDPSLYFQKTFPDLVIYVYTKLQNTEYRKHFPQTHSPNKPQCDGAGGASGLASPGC
Method: RNase L Immunoprecipitation. MDA-MB-231 cells were seed in 6-well plates and were treated with vehicle, 4 (1 μM) or 5 (1 μM) when the cells reached ~70% confluency. After 48 h, the cells were harvested and lysed in 100 μL of M-PER buffer containing protease inhibitor and RNaseOUT recombinant Ribonuclease Inhibitor (Invitrogen) on ice for 20 min. The lysate was centrifuged at 13,000×g for 15 min, and the supernatants were incubated with Dynabeads Protein A (Life Technologies) bound to RNase L mouse primary antibody or β-actin mouse primary antibody overnight at 4° C. After incubation, the beads were washed with 1×DPBS containing 0.02% (v/v) Tween-20, and RNA was extracted by using a miRNeasy Mini Kit (Qiagen) per the manufacturer's instructions. RT-qPCR was performed as described above. Relative RNA levels were determined by ΔΔCt method by normalizing to 18S rRNA levels. Normalized fold change was calculated as previously described^6.

[2] = Quantitation of 1 and 2 in mouse plasma and tissue; type: in vivo; conditions: male, C57BL/6, mouse, lung, ip, 56 mg/kg; intraperitoneal injection; read-out: drug exposure in the lung
Method: Quantitation of 1 and 2 in mouse plasma and tissue. Male C57BL/6 mice (n=3 per dose; 5-7 weeks) were intraperitoneally (i.p.) injected with 1 (24, 49 or 81 mg/kg) or 2 (17, 34 or 56 mg/kg) in a formulation of DMSO/Tween-80/H2O (10/10/80). After 48 h, mice were euthanized, and blood, lung and kidney were collected. Tissues were immediately frozen. Blood was centrifuged to generate plasma and immediately frozen. On the day of analysis, tissues were homogenized, mixed with 5-times volume of acetonitrile, and filtered. Drug levels were determined by mass spectrometry using an ABSciex 5500 mass spectrometer using multiple reaction monitoring.

[3] = test system: all miRNAs expressed in MDA-MB-231 cells; assay: Global miRNA profiling in MDA-MB-231 cells; type: cell-based, human
Method: RNA Isolation and Quantitative Real-Time PCR (RT-qPCR). After treatment, total RNA was extracted and purified by using the Zymo Quick-RNA mini prep kit per the manufacturer's protocol. Reverse Transcription (RT) for mature miRNAs as well as pri- and pre-miR-21 was completed on 200 ng of RNA by using a miScript 11 RT kit (QIAGEN) according to manufacturer's protocol. RT of mRNAs was performed by using QScript kit (Quanta Bio). An Applied Biosystems QS5 384-well PCR system was used to complete qPCR experiments using Power Sybr Green Mater Mix (Life Technologies) as described previously^6.

pre-miR-21 mutant = assay: In vitro Dicer processing of pre-miR-21 mutant; type: biochemical
Method: In vitro Dicer Processing. The pre-miR-21 WT RNA or pre-miR-21 base pair mutant were 5′-end labeled with T4 polynucleotide kinase and [γ-^32P] ATP as described previously^7. The RNA was folded in 1× Reaction Buffer (Genlantis) by heating at 55° C. for 5 min and cooling slowly to room temperature on the benchtop. The mixture was then supplemented with 2.5 mM MgCl2 and 1 mM ATP. The Dicer processing reaction was performed as described previously^6. The cleavage products were resolved on a 15% polyacrylamide denaturing gel and imaged using a Molecular Dynamics Typhoon phosphorimager and quantified with QuantityOne software from Bio-Rad.

Structure (SMILES) | fold greater concentration than 1 required to compete off degradation by PROTAC 3 (FLT3) | concentration required to compete off the target degradation of PROTAC 3 (FLT3; co-treatment with 3) | enrichment of pre-miR-21 in RNase L immunoprecipitation ([1]; MDA-MB-231) | enrichment of pre-miR-210 in RNase L immunoprecipitation ([1]; pre-miRNA without 1-binding site) | concentration at 48 h [2] | selectivity among all miRNAs [3] | inhibition of Dicer processing of mutant pre-miR-21 lacking the 1 binding site (pre-miR-21 mutant)
CCOC(=O)C1=C(Nc2ccccc2)S/C(=C\c2ccc(OCCOCCOCCOCCNC(=O)NCCN3CCN(c4ccc5[nH]c(-c6c(N)c7c(F)cccc7[nH]c6=O)nc5c4)CC3)c(O)c2)C1=O [Compound 2, Ribotac-Dovitinib] | 100 fold | 10 µM | immunoprecipitated pre-miR-21; also recorded: enriched | did not enrich | 1000 nM | more selective than 1; also recorded: greater selectivity | 
CN1CCN(c2ccc3nc(-c4c(N)c5c(F)cccc5[nH]c4=O)[nH]c3c2)CC1 [Compound 1, Dovitinib, reference compound] |  |  |  |  |  |  | had no effect; also recorded: unable to inhibit
